Assay results as given in patent US12077503B2, “Substituted cyclic amides and their use as herbicides” (FMC CORPORATION, priority 2015, dated 2024).

How the values were obtained:
Format in all cases: in vivo
[1] = test system: ragweed (common ragweed, Ambrosia elatior); assay: Test A preemergence; conditions: Ambrosia artemisiifolia, pre-emergence, 240 h, 0 to 100 scale (0 no effect, 100 complete control), read-out: Plant response rating, Ragweed
Method in brief: (§1)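 Ratings of 0 (no effect) to 100 (complete control) come from visual comparison with untreated controls roughly 10 d after treatment. Test chemicals, formulated in a non-phytotoxic solvent mixture with surfactant, were applied either as a preemergence directed soil spray on seeded soil or postemergence to one- to two-leaf plants 2 to 10 cm tall.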

[2] = test system: ryegrass, Italian (Italian ryegrass, Lolium multiflorum); assay: Test A preemergence; conditions: Lolium multiflorum, pre-emergence, 240 h, 0 to 100 scale (0 no effect, 100 complete control), read-out: Plant response rating, Ryegrass, Italian
Method in brief: as §1

[3] = test system: pigweed (Amaranthus retroflexus); assay: Test A preemergence; conditions: Amaranthus retroflexus, pre-emergence, 240 h, 0 to 100 scale (0 no effect, 100 complete control), read-out: Plant response rating, Pigweed
[4] = test system: giant foxtail (Setaria faberii); assay: Test A preemergence; conditions: Setaria faberi, pre-emergence, 240 h, 0 to 100 scale (0 no effect, 100 complete control), read-out: Plant response rating, Foxtail, Giant
Method in brief: as §1

Kochia (Kochia scoparia) [5] = assay: Test A preemergence; conditions: Bassia scoparia, pre-emergence, 240 h, 0 to 100 scale (0 no effect, 100 complete control), read-out: Plant response rating, Kochia
Method in brief: as §1

[6] = test system: ragweed (common ragweed, Ambrosia elatior); assay: Test A postemergence; conditions: Ambrosia artemisiifolia, post-emergence, 240 h, Postemergence
Method in brief: as §1

corn (Zea mays) = assay: Test A postemergence; conditions: Zea mays, post-emergence, 240 h, Postemergence
Method in brief: as §1

[7] = test system: ryegrass, Italian (Italian ryegrass, Lolium multiflorum); assay: Test A postemergence; conditions: Lolium multiflorum, post-emergence, 240 h, Postemergence
Method in brief: as §1

[8] = test system: pigweed (Amaranthus retroflexus); assay: Test A postemergence; conditions: Amaranthus retroflexus, post-emergence, 240 h, Postemergence
Method in brief: as §1

[9] = test system: barnyardgrass (Echinochloa crus-galli); assay: Test A postemergence; conditions: Echinochloa crus-galli, post-emergence, 240 h, Postemergence
Method in brief: as §1

[10] = test system: Galium (catchweed bedstraw, Galium aparine); assay: Test A postemergence; conditions: Galium, post-emergence, 240 h, Postemergence
Method in brief: as §1

[11] = test system: wheat (Triticum aestivum); assay: Test A postemergence; conditions: Triticum aestivum, post-emergence, 240 h, Postemergence
Method in brief: as §1

[12] = test system: blackgrass (Alopecurus myosuroides); assay: Test A postemergence; conditions: Alopecurus myosuroides, post-emergence, 240 h, Postemergence
Method in brief: as §1

[13] = test system: giant foxtail (Setaria faberii); assay: Test A postemergence; conditions: Setaria faberi, post-emergence, 240 h, Postemergence
Method in brief: as §1

Kochia (Kochia scoparia) [14] = assay: Test A postemergence; conditions: Bassia scoparia, post-emergence, 240 h, Postemergence
Method in brief: as §1

O=C1NC[C@H](c2cnc(C(F)(F)F)nc2)[C@H]1C(=O)Nc1cccc(F)c1F [Compound 1382]
pest or weed control at 500 g/ha ([1]; 500 g ai/ha, preemergence): 0%
pest or weed control at 125 g/ha ([1]; Preemergence, 125 g ai/ha): 0%
pest or weed control at 500 g/ha ([2]; 500 g ai/ha, preemergence): 0%
pest or weed control at 125 g/ha ([2]; Preemergence, 125 g ai/ha): 0%
pest or weed control at 500 g/ha ([3]; 500 g ai/ha, preemergence): 20%
pest or weed control at 125 g/ha ([3]; Preemergence, 125 g ai/ha): 20%
pest or weed control at 500 g/ha ([4]; 500 g ai/ha, preemergence): 90%
pest or weed control at 125 g/ha ([4]; Preemergence, 125 g ai/ha): 0%
pest or weed control at 500 g/ha (Kochia (Kochia scoparia) [5]; 500 g ai/ha, preemergence): 60%
pest or weed control at 125 g/ha (Kochia (Kochia scoparia) [5]; Preemergence, 125 g ai/ha): 0%
pest or weed control at 125 g/ha ([6]; 125 g ai/ha, visual rating about 10 d after treatment, read-out: Ragweed plant response rating (0 to 100 scale)): 0%
pest or weed control at 500 g/ha ([6]; 500 g ai/ha, visual injury, 0 to 100 scale (0 no effect, 100 complete control), approx. 10 d, read-out: Plant response rating, Ragweed): 0%
plant injury at 125 g/ha (corn (Zea mays); 125 g ai/ha, visual rating about 10 d after treatment, read-out: Corn plant response rating (0 to 100 scale)): 0%
Corn plant response rating (crop injury, 0 = no effect, 100 = complete kill) at 500 g/ha (corn (Zea mays); 500 g ai/ha, visual injury, 0 to 100 scale (0 no effect, 100 complete control), approx. 10 d): 0%
pest or weed control at 125 g/ha ([7]; 125 g ai/ha, visual rating about 10 d after treatment, read-out: Ryegrass, Italian plant response rating (0 to 100 scale)): 0%
pest or weed control at 500 g/ha ([7]; 500 g ai/ha, visual injury, 0 to 100 scale (0 no effect, 100 complete control), approx. 10 d, read-out: Plant response rating, Ryegrass, Italian): 0%
pest or weed control at 125 g/ha ([8]; 125 g ai/ha, visual rating about 10 d after treatment, read-out: Pigweed plant response rating (0 to 100 scale)): 0%
pest or weed control at 500 g/ha ([8]; 500 g ai/ha, visual injury, 0 to 100 scale (0 no effect, 100 complete control), approx. 10 d, read-out: Plant response rating, Pigweed): 0%
pest or weed control at 125 g/ha ([9]; 125 g ai/ha, visual rating about 10 d after treatment, read-out: Barnyardgrass plant response rating (0 to 100 scale, 0 no effect, 100 complete control)): 0%
pest or weed control at 500 g/ha ([9]; 500 g ai/ha, visual injury, 0 to 100 scale (0 no effect, 100 complete control), approx. 10 d, read-out: Plant response rating, Barnyardgrass): 80%
pest or weed control at 125 g/ha ([10]; 125 g ai/ha, visual rating about 10 d after treatment, read-out: Galium plant response rating (0 to 100 scale)): 0%
pest or weed control at 500 g/ha ([10]; 500 g ai/ha, visual injury, 0 to 100 scale (0 no effect, 100 complete control), approx. 10 d, read-out: Plant response rating, Galium): 30%
plant injury at 125 g/ha ([11]; 125 g ai/ha, visual rating about 10 d after treatment, read-out: Wheat plant response rating (0 to 100 scale)): 0%
plant injury at 500 g/ha ([11]; 500 g ai/ha, visual injury, 0 to 100 scale (0 no effect, 100 complete control), approx. 10 d, read-out: Plant response rating, Wheat): 0%
pest or weed control at 125 g/ha ([12]; 125 g ai/ha, visual rating about 10 d after treatment, read-out: Blackgrass plant response rating (0 to 100 scale)): 0%
pest or weed control at 500 g/ha ([12]; 500 g ai/ha, visual injury, 0 to 100 scale (0 no effect, 100 complete control), approx. 10 d, read-out: Plant response rating, Blackgrass): 0%
pest or weed control at 125 g/ha ([13]; 125 g ai/ha, visual rating about 10 d after treatment, read-out: Foxtail, Giant plant response rating (0 to 100 scale)): 0%
pest or weed control at 500 g/ha ([13]; 500 g ai/ha, visual injury, 0 to 100 scale (0 no effect, 100 complete control), approx. 10 d, read-out: Plant response rating, Foxtail, Giant): 70%
pest or weed control at 125 g/ha (Kochia (Kochia scoparia) [14]; 125 g ai/ha, visual rating about 10 d after treatment, read-out: Kochia plant response rating (0 to 100 scale)): 0%
pest or weed control at 500 g/ha (Kochia (Kochia scoparia) [14]; 500 g ai/ha, visual injury, 0 to 100 scale (0 no effect, 100 complete control), approx. 10 d, read-out: Plant response rating, Kochia): 0%
